The target in this assay is T1, Bile acid receptor (Homo sapiens, UniProt Q96RI1).
T1 sequence (Q96RI1 whole entry): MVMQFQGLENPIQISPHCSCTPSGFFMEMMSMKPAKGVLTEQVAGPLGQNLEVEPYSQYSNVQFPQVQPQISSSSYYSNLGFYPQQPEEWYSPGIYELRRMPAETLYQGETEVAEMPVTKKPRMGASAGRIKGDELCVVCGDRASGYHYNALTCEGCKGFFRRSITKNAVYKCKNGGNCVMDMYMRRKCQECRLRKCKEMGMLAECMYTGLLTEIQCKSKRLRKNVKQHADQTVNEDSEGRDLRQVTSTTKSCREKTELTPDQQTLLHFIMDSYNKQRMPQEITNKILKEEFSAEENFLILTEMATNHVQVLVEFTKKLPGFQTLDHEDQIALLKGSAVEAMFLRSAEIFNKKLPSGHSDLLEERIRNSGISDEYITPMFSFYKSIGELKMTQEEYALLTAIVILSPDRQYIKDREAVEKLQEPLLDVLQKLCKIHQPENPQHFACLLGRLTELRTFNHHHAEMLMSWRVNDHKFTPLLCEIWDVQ
Nature of the assay: Scintillation Proximity Assay. The conditions noted are these: pH 8; 22 °C. Here is the method:
Binding affinity (IC50) was evaluated using scintillation proximity assay with radiolabeled ligand and biotinylated receptor. Because the scintillant is contained within the SPA bead, only radiolabel that is attached to the bead is detected. The receptor-ligand complex is bound to the bead through interaction between the biotinylated receptor and the streptavidin moiety located on the surface of the bead.
A general note: SPA uses beads or plates that emit light when radiolabelled molecules are held near them.

SMILES strings stand for the structures. pEC50, pIC50: −log10 of the molar value.

Broadly, the pIC50 is the negative decadic logarithm of the IC50, by convention in mol/L. A high value points to a small IC50. On to `Cc1cc(OCc2c(-c3c(Cl)c[n+]([O-])cc3Cl)noc2C(C)Cl)ccc1-c1ccc2c(C(=O)O)cn(C)c2c1` (centres undefined) [3-aryl isoxazole analog, 7b], for which the pIC50 is 7.35. `Cc1cc(OCc2c(-c3cc[nH]c(=O)c3Cl)noc2C(C)Cl)ccc1-c1ccc2c(C(=O)O)cn(C)c2c1` (centres undefined) [3-aryl isoxazole analog, 7c] had a pIC50 of 5.96. One may read the pEC50 as −log10 of the EC50, conventionally taken in molar units. Read a high pEC50 as a small EC50. `Cc1cc(OCc2c(-c3ccn(C)c(=O)c3Cl)noc2C(C)Cl)ccc1-c1ccc2c(C(=O)O)cn(C)c2c1` (centres undefined) [3-aryl isoxazole analog, 7d]: the pEC50 is 5.15 and the pIC50 was 5.13. Regarding `Cc1cc(OCc2c(-c3c(Cl)cn(C)c(=O)c3Cl)noc2C(C)Cl)ccc1-c1ccc2c(C(=O)O)cn(C)c2c1` (centres undefined) [3-aryl isoxazole analog, 7e], the pIC50 is 5.38. Same read-out and setting: for `Cc1cc(OCc2c(-c3c(Cl)ccc(=O)n3C)noc2C(C)Cl)ccc1-c1ccc2c(C(=O)O)cn(C)c2c1` (centres undefined) [3-aryl isoxazole analog, 7f] the value was 6.06. The compound `COc1ccc(Cl)c(-c2noc(C(C)Cl)c2COc2ccc(-c3ccc4c(C(=O)O)cn(C)c4c3)c(C)c2)n1` (centres undefined) [3-aryl isoxazole analog, 7g] gave a pEC50 of 5.70 and a pIC50 of 6.12. In turn, `Cc1cc(OCc2c(-c3[nH]c(=O)ccc3Cl)noc2C(C)Cl)ccc1-c1ccc2c(C(=O)O)cn(C)c2c1` (centres undefined) [3-aryl isoxazole analog, 7h] had a pIC50 of 5.29.

The values above are taken from BindingDB's records for doi:10.1016/j.bmcl.2009.03.008 (Roche R & D Center(China), 2009).
